target: GPR17 (Homo sapiens, UniProt Q13304); assay: Calcium mobilization functional assay (GPR17 Ca2+ assay); format: cell-based; set-up: host or cells: Flp-In T-REx CHO; details: CHO hGPR17 cells, inhibition of 50 nM MDL29,951, Calcium 5 dye, FLIPR; read-out: Ca2+ assay pIC50 (converted)
Description: Flp-In T-REx CHO cells stably expressing human GPR17 receptor (CHO hGPR17) from Evi Kostenis' lab (Bonn University, Germany) were cultured at 37° C. in a humidified atmosphere of 5% CO2. Cells were grown in DMEM with Nutrient Mixture F-12 supplemented with hygromycin B (500 μg/mL) and blasticidin (30 μg/mL). Expression from the Flp-In locus was induced by treatment with doxycycline (1 μg/mL) for 16-20 h prior assays.
GPR17 is a G-protein coupled receptor. GPR17 activation triggers Gq-type G-protein signaling resulting in endoplasmic reticulum calcium (Ca^2+) stores release in cytosol which can be measured using Calcium 5 dye, a fluorescent indicator dye of cytosolic Ca^2+ levels. All Examples were tested in GPR17 Ca^2+ assay to determine (screen) their GPR17 modulating activity.
CHO hGPR17 were defrosted and seeded at a density of 20,000 cells per well into black 384-well plates with clear bottom. Cells were incubated overnight at 37° C. in a humidified atmosphere of 5% CO2. Sixteen to twenty hours after seeding, CHO hGPR17 were loaded for 60 min with Calcium 5 dye, a cytosolic Ca^2+ indicator fluorescent dye, according to manufacturer's instructions. Fluorescent signal relative to cytosolic Ca^2+ concentration was recorded over time at room temperature in FLIPR Tetra reader. […] Then, 50 nM MDL29,951, a GPR17 agonist, was added to the cells. Inhibitory effects of varying concentrations test compounds were measured and resulting plC50s were determined. […] Analysis and curve fitting were performed in ActivityBase XE using XLfit 4-parameter logistic equation y=A+((B−A)/(1+((C/x)^D))) where A, B, C and D stand for minimum y, maximum y, IC50 and slope, respectively.
The activities of the Example compounds tested are depicted in the table in Section B2B below. The activity ranges A, B and C refer to plC50 values in the Ca^2+ assay as follows: “A”: plC50<7.5, “B”: plC50 7.5<x≤ 8.5, “C”: plC50>8.5

Sequence of GPR17 (Q13304 whole entry): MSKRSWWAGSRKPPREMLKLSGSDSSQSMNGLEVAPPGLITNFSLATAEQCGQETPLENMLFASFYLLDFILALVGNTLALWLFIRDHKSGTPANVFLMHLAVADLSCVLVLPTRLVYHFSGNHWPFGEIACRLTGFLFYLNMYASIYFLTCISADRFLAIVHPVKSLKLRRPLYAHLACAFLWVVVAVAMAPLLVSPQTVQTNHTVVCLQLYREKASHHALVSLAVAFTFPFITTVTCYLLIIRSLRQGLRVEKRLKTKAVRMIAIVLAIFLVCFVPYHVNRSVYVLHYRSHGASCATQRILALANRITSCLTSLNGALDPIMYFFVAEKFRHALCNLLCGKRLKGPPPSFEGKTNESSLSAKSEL

| Compound | IC50 [nM] |
| --- | --- |
| N#CCc1ccc(NS(=O)(=O)c2c[nH]c3cc(Cl)ccc23)cc1 [Compound I-180, 6-chloro-N-[4-(cyanomethyl)phenyl]-1H-indole-3-sulfonamide] | > 31.6 |
| O=S(=O)(Nc1cc(F)c(F)cc1F)c1c[nH]c2cc(C(F)(F)F)ccc12 [Compound I-54, 6-(trifluoromethyl)-N-(2,4,5-trifluorophenyl)-1H-indole-3-sulfonamide] | > 31.6 |
| O=S(=O)(Nc1cccc(Cl)n1)c1c[nH]c2cc(Cl)ccc12 [Compound I-57, 6-chloro-N-(6-chloropyridin-2-yl)-1H-indole-3-sulfonamide] | > 31.6 |
| COc1ccc2c(S(=O)(=O)Nc3cc(F)c(F)cc3F)c[nH]c2c1 [Compound I-2, 6-methoxy-N-(2,4,5-trifluorophenyl)-1H-indole-3-sulfonamide] | > 31.6 |
| O=S(=O)(Nc1ccc2nsnc2c1)c1c[nH]c2c1ccc1ccccc12 [Compound I-157, N-(2,1,3-benzothiadiazol-5-yl)-1H-benzo[g]indole-3-sulfonamide] | 3.16 to 31.6 |
| N#Cc1ccc(NS(=O)(=O)c2c[nH]c3ccc(Br)cc23)cc1 [Compound I-13, 5-bromo-N-(4-cyanophenyl)-1H-indole-3-sulfonamide] | > 31.6 |
| COc1nc(NS(=O)(=O)c2c[nH]c3cc(Br)ccc23)c(F)cc1CC#N [Compound I-320, 6-bromo-N-[5-(cyanomethyl)-3-fluoro-6-methoxypyridin-2-yl]-1H-indole-3-sulfonamide] | < 3.16 |
| O=S(=O)(Nc1cc2nsnc2cc1F)c1c[nH]c2nc(Cl)ccc12 [Compound I-144, 6-chloro-N-(6-fluoro-2,1,3-benzothiadiazol-5-yl)-1H-pyrrolo[2,3-b]pyridine-3-sulfonamide] | 3.16 to 31.6 |
| COc1nc(NS(=O)(=O)c2c[nH]c3c(Br)c(Cl)ccc23)c(F)cc1CC#N [Compound I-322, 7-bromo-6-chloro-N-[5-(cyanomethyl)-3-fluoro-6-methoxypyridin-2-yl]-1H-indole-3-sulfonamide] | < 3.16 |
| COc1ccc2c(S(=O)(=O)Nc3cccc4c3OC(F)(F)O4)c[nH]c2c1 [Compound I-72, N-(2,2-difluoro-1,3-benzodioxol-4-yl)-6-methoxy-1H-indole-3-sulfonamide] | > 31.6 |
| O=S(=O)(Nc1ccc2n[se]nc2c1)c1c[nH]c2cc(Cl)ccc12 [Compound I-161, N-(2,1,3-benzoselenadiazol-5-yl)-6-chloro-1H-indole-3-sulfonamide] | 3.16 to 31.6 |
| O=S(=O)(Nc1ccccc1F)c1c[nH]c2cc(Cl)ccc12 [Compound I-11, 6-chloro-N-(2-fluorophenyl)-1H-indole-3-sulfonamide] | > 31.6 |
| COCc1ccc(NS(=O)(=O)c2c[nH]c3cc(Cl)ccc23)cc1 [Compound I-122, 6-chloro-N-(4-(methoxymethyl)phenyl)-1H-indole-3-sulfonamide] | > 31.6 |
| N#Cc1cc(F)c(NS(=O)(=O)c2c[nH]c3cc(F)cc(F)c23)cc1F [Compound I-164, N-(4-cyano-2,5-difluorophenyl)-4,6-difluoro-1H-indole-3-sulfonamide] | > 31.6 |
| O=S(=O)(Nc1ccc2nsnc2c1)c1c[nH]c2cc(F)ccc12 [Compound I-169, N-(2,1,3-benzothiadiazol-5-yl)-6-fluoro-1H-indole-3-sulfonamide] | > 31.6 |
| O=S(=O)(Nc1cccc(F)c1Cl)c1c[nH]c2nc(Cl)ccc12 [Compound I-87, 6-chloro-N-(2-chloro-3-fluorophenyl)-1H-pyrrolo[2,3-b]pyridine-3-sulfonamide] | > 31.6 |
| C#Cc1ccc(NS(=O)(=O)c2c[nH]c3cc(S(C)(=O)=O)ccc23)cc1 [Compound I-34, N-(4-ethynylphenyl)-6-(methylsulfonyl)-1H-indole-3-sulfonamide] | > 31.6 |

| Compound | IC50 [nM] |
| --- | --- |
| O=S(=O)(Nc1ccc(I)cc1F)c1c[nH]c2c1ccc1ccccc12 [Compound I-47, N-(2-fluoro-4-iodophenyl)-1H-benzo[g]indole-3-sulfonamide] | > 31.6 |
| CS(=O)(=O)c1ccc2c(S(=O)(=O)Nc3cccc4c3OCO4)c[nH]c2c1 [Compound I-33, N-(1,3-benzodioxol-4-yl)-6-(methylsulfonyl)-1H-indole-3-sulfonamide] | > 31.6 |
| N#Cc1cc(F)c(NS(=O)(=O)c2c[nH]c3ccccc23)cc1F [Compound I-145, N-(4-cyano-2,5-difluorophenyl)-1H-indole-3-sulfonamide] | 3.16 to 31.6 |
| Cc1cc(NS(=O)(=O)c2c[nH]c3cc(Cl)ccc23)ccc1C#N [Compound I-209, 6-chloro-N-(4-cyano-3-methylphenyl)-1H-indole-3-sulfonamide] | > 31.6 |
| Cc1ccc2c(S(=O)(=O)Nc3cc(F)c(C#N)cc3F)c[nH]c2c1 [Compound I-187, N-(4-cyano-2,5-difluorophenyl)-6-methyl-1H-indole-3-sulfonamide] | 3.16 to 31.6 |
| O=S(=O)(Nc1ccc(Cl)cc1F)c1c[nH]c2cc3c(cc12)OCO3 [Compound I-43, N-(4-chloro-2-fluorophenyl)-5H-[1,3]dioxolo[4,5-f]indole-7-sulfonamide] | > 31.6 |
| N#Cc1ccc(NS(=O)(=O)c2c[nH]c3ccc(I)cc23)cc1 [Compound I-15, N-(4-cyanophenyl)-5-iodo-1H-indole-3-sulfonamide] | > 31.6 |
| N#Cc1ccc2c(S(=O)(=O)Nc3cc(F)c(F)cc3F)c[nH]c2c1 [Compound I-75, 6-cyano-N-(2,4,5-trifluorophenyl)-1H-indole-3-sulfonamide] | > 31.6 |
| O=S(=O)(Nc1cccc2nsnc12)c1c[nH]c2cc(F)cc(F)c12 [Compound I-166, N-(2,1,3-benzothiadiazol-4-yl)-4,6-difluoro-1H-indole-3-sulfonamide] | > 31.6 |
| Cc1cc2c(S(=O)(=O)Nc3cccc4c3OCO4)c[nH]c2cc1Br [Compound I-35, N-(1,3-benzodioxol-4-yl)-6-bromo-5-methyl-1H-indole-3-sulfonamide] | > 31.6 |
| C#Cc1ccc(NS(=O)(=O)c2c[nH]c3cc(Cl)ccc23)cc1 [Compound I-22, 6-chloro-N-(4-ethynylphenyl)-1H-indole-3-sulfonamide] | > 31.6 |
| O=S(=O)(Nc1ccc(Br)c2c1OC(F)(F)O2)c1c[nH]c2cc(Cl)ccc12 [Compound I-130, N-(7-bromo-2,2-difluoro-1,3-benzodioxol-4-yl)-6-chloro-1H-indole-3-sulfonamide] | > 31.6 |
| N#Cc1ccc(NS(=O)(=O)c2c[nH]c3ccc(Cl)cc23)cc1 [Compound I-17, 5-chloro-N-(4-cyanophenyl)-1H-indole-3-sulfonamide] | > 31.6 |
| N#Cc1ccc(NS(=O)(=O)c2c[nH]c3cc(-c4ccncc4)ccc23)c(F)c1 [Compound I-231, N-(4-cyano-2-fluorophenyl)-6-(pyridin-4-yl)-1H-indole-3-sulfonamide] | > 31.6 |
| C#Cc1ccc(NS(=O)(=O)c2c[nH]c3nc(Cl)ccc23)cc1 [Compound I-84, 6-chloro-N-(4-ethynylphenyl)-1H-pyrrolo[2,3-b]pyridine-3-sulfonamide] | > 31.6 |
| O=S(=O)(Nc1ccc2ncsc2c1)c1c[nH]c2cc(Cl)ccc12 [Compound I-3, N-(1,3-benzothiazol-6-yl)-6-chloro-1H-indole-3-sulfonamide] | > 31.6 |
| Cc1ccc(NS(=O)(=O)c2c[nH]c3c2ccc2ccccc23)c(F)c1 [Compound I-121, N-(2-fluoro-4-methylphenyl)-1H-benzo[g]indole-3-sulfonamide] | > 31.6 |
